From US7115649B2, “Methods of treating skin disorders using thio-oxindole derivatives” (Wyeth, priority 2002, dated 2006)

Experiments:
androgen receptor (AR) = molecular target: T1, androgen receptor (AR) (Mus musculus, UniProt P19091); experiment: Androgen receptor agonistic and antagonistic activity, PRE-tk-luciferase reporter in L929 cells; assay type: cell-based
T1 construct: in the L929 cells which express the AR but not the PR; endogenous in cells; host or cells: L929 cells
T1 sequence (P19091 1-899): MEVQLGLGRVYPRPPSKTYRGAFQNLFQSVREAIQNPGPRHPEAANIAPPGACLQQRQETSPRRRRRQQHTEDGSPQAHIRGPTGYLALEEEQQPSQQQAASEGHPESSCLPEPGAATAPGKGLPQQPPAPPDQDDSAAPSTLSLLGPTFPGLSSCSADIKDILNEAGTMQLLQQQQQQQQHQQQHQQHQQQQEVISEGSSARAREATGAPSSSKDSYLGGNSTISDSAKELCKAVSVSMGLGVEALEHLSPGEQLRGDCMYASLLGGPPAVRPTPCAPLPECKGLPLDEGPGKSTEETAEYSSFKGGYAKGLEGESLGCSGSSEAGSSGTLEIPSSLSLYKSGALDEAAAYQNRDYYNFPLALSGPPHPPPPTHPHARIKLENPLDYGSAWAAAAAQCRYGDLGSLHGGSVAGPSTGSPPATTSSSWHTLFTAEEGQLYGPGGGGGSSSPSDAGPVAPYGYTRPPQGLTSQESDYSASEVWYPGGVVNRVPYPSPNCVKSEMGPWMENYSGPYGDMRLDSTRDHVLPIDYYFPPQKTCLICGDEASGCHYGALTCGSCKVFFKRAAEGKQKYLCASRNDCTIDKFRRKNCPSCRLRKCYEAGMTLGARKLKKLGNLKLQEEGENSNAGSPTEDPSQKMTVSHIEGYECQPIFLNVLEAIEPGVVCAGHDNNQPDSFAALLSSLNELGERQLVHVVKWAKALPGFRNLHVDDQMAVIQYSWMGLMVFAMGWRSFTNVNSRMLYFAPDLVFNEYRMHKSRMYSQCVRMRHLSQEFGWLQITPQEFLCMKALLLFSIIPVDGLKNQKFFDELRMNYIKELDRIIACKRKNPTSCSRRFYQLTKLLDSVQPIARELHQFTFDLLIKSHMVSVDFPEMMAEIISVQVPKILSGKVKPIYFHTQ
Procedure: The androgen receptor (AR) agonistic and antagonistic activity of the compositions of the invention in the L929 cells which express the AR but not the PR was evaluated as described in Zhang et al., Steroids, 65(10–11): 637–643 (October–November 2000).
Cells were plated in 96-well plates at 25,000 cells/well in DMEM (BioWhittaker) with 10% (v/v) fetal bovine serum (FBS). The next day, cells were infected with the adenovirus PRE-tk-luciferase reporter construct (2×10^9 pfu/ml particles) and kept in DMEM containing 10% charcoal stripped FBS for an additional 24 hours. […] To test the anti-androgenic activity, cells were co-treated with 3 nM DHT. Luciferase activity was measured 24 hours following the treatment.

acne vulgaris = experiment: Treatment of acne in a human patient, oral tablet daily; assay type: in vivo; conditions: about 20 mg tablet orally daily
Procedure: A human patient having acne vulgaris is treated according to the present invention. Specifically, 5-(5-Cyano-1-methyl-1H-pyrrol-2-yl)spiro[cyclohexane-1,3′-[3H]indol]-2′-ylidenecyanamide is orally delivered to the patient daily. Delivery is in the form of a tablet formulated to contain about 20 mg of 5′-(5-Cyano-1-methyl-1H-pyrrol-2-yl)spiro[cyclohexane-1,3′-[3H]indol]-2′-ylidenecyanamide.

eczema = experiment: Conditioning the skin of a human patient with severe eczema; assay type: in vivo; conditions: about 50 mg daily
Procedure: A human patient having a severe form of eczema is treated according to the present invention. Specifically, about 50 mg of 5′-(5-Cyano-1-methyl-1H-pyrrol-2-yl)spiro[cyclohexane-1,3′-[3H]indol]-2′-ylidenecyanamide is delivered to the patient daily.

- agonistic activity (androgen receptor (AR); at the maximum concentration tested (10 nM)): only marginal agonistic activity
- IC50 (androgen receptor (AR); co-treated with 3 nM DHT, luciferase activity 24 hours after treatment, read-out: IC50 (anti-androgenic activity)): 313 nM
- antagonistic activity (androgen receptor (AR); nine point dose response, co-treated with 3 nM DHT): significant antagonistic activity
Compound: Cn1c(C#N)ccc1-c1ccc2c(c1)C1(CCCCC1)C(=NC#N)N2 [5′-(5-Cyano-1-methyl-1H-pyrrol-2-yl)spiro[cyclohexane-1,3′-[3H]indol]-2′-ylidenecyanamide]
- acne vulgaris (acne vulgaris; after about 24 weeks): improvement in the acne vulgaris is observed
- presence of lesions caused by acne vulgaris (acne vulgaris; forty-five to sixty days after the treatment): a decrease in the presence of lesions caused by acne vulgaris is noticed
- eczema (eczema; after about 12 weeks): improvement in the eczema is observed
- dryness of the skin (eczema; thirty days after the treatment): a decrease in the dryness affected to the skin is noticed
